Tested on: streptococcal cell wall-induced arthritis
Assay: Rat streptococcal cell wall (SCW)-induced arthritis: ankle swelling and von Frey mechanical threshold
Format: in vivo
Settings: oral bid, P2X7 antagonist 1 30 mg/kg
From the text: Assessment of Anti-Inflammatory Activity of the COX-2 Inhibitor, Celecoxib/P2X7 Antagonist Combinations in Rat Streptococcal Cell Wall-Induced Arthritis.^1 1. Experimental procedure based on that described by Carlson R P, Jacobsen P B, ‘Comparison of adjuvant and streptococcal cell wall-induced arthritis in the rat’in Morgan D W, Marshall L A, editors; In Vivo Models of Inflammation. Basel: Birkhauser Verlag; 1999.
Streptococcal cell wall (SCW)-induced arthritis was induced in the left ankle of female Lewis rats. Animals were sensitised by intra-articular injection of 5 μg (in 20 μL) SCW (Lee Laboratories) into the left ankle. Ankle swelling was assessed 3 days after injection and non-responders (animals with no apparent ankle swelling) were rejected. Responding animals were randomly allocated to the test groups.
Arthritis was induced 21 days after sensitisation by intravenous (iv) injection of SCW (100 μg in 500 μL saline). Animals were monitored and assessed on a daily basis through to term-ination 6 days after induction. The rats were housed on sawdust and provided with food and water ad libitum.
In this example the P2X7 antagonist 1 was orally dosed at 30 mg/kg (4 mL/kg, bid). The compound was dosed as a suspension in 1% (w/v) methylcellulose in deionised water and was freshly prepared on a daily basis. Dosing commenced 1 day prior to induction of arthriis and continued on a daily basis through to termination on day 6 post-induction. Celecoxib (3 mg/kg) was dosed orally under the same regime as for P2X7 antagonist 1, administration of celecoxib occurring immediately after administration of P2X7 antagonist 1.
Ankle diameters were measured with vernier callipers on a daily basis from day −1. Mechanical thresholds were assessed using von Frey filaments on days −1, 1, 3 and 5. The filaments were applied in increasing weights to the ankle region on the footpad of both feet. The first filament to induce a withdrawal response was considered to be the threshold.
Effects on ankle swelling and mechanical threshold were calculated on an area under the curve (AUC) basis, as the sum of the differences from individual day −1 values. The size. and direction of the interaction was calculated and data analysis performed by ANOVA followed by Dunnett's test on the AUC data (SAS version 8.01).
The anti-inflammatory activity of the COX-2 inhibitor, rofecoxib in combination with a P2X7 antagonist was assesesd using the protocol described in Example 3A. The P2X7 antagonist 1 was dosed orally at 30 mg/kg (4 mL/kg, bid) as a suspension in 1% (w/v) methylcellulose in deionised water, together with rofecoxib (Merck Sharp & Dohme Limited) (1 mg/kg) in a single formulation. Dosing commenced 1 day prior to induction of arthritis and continued on a daily baisis through to termination on day 6 post-induction.
The anti-inflammatory activity of the COX-2 inhibitor, valdecoxib in combination with a P2X7 antagonist was assesesd using the protocol described in Example 3A. The P2X7 antagonist 1 was orally dosed at 30 mg/kg (4 mL/kg, bid) as a suspension in 1% (w/v) methylcellulose in deionised water, together with valdecoxib (Pfizer) (1 mg/kg) in a single formulation. Dosing commenced 1 day prior to induction of arthritis and continued on a daily baisis through to termination on day 6 post-induction.

[1] = Example 3C, day -1 to day 6, valdecoxib 1 mg/kg, single formulation
[2] = Example 3B, day -1 to day 6, rofecoxib 1 mg/kg, single formulation
[3] = Example 3A, female Lewis rats, day -1 to day 6 post-induction, celecoxib 3 mg/kg, given one immediately after the other

Row | Compound | % reduction of AUC (compared to arthritic vehicle control) Ankle swelling [1] [%] | % reduction of AUC (compared to arthritic vehicle control) Von Frey threshold [1] [%] | % reduction of AUC (compared to arthritic vehicle control) Ankle swelling [2] [%] | % reduction of AUC (compared to arthritic vehicle control) Von Frey threshold [2] [%] | % reduction of AUC (compared to arthritic vehicle control) Ankle swelling [3] [%] | % reduction of AUC (compared to arthritic vehicle control) Von Frey threshold [3] [%]
1 | Cc1onc(-c2ccccc2)c1-c1ccc(S(N)(=O)=O)cc1 [Valdecoxib, 4-(5-methyl-3-phenyl-4-isoxazolyl)benzenesulfonamide] | 52.8 ± 3.1 | 37.8 ± 8.6 |  |  |  | 
2 | CS(=O)(=O)c1ccc(C2=C(c3ccccc3)C(=O)OC2)cc1 [Rofecoxib, 4-[4′-(methylsulfonyl)phenyl]-3-phenyl-(5H)-furanone] |  |  | 50.6 ± 4.7 | 29.8 ± 7.8 |  | 
3 | Cc1ccc(-c2cc(C(F)(F)F)nn2-c2ccc(S(N)(=O)=O)cc2)cc1 [Celecoxib, 4-[5-(4-methylphenyl)-3-(trifluoromethyl)-1H-pyrazol-1-yl]benzenesulfonamide] |  |  |  |  | 63.0 ± 3.9 | 43.2 ± 15.9
4 | Cc1ccc(C(=O)N2CC3CNCC(C2)O3)cc1NC(=O)CC12CC3CC(CC(C3)C1)C2.Cl [P2X7 antagonist 1, N-[2-Methyl-5-(9-oxa-3,7-diazabicyclo[3.3.1]non-3-ylcarbonyl)phenyl]-tricyclo[3.3.1.1^3,7]decane-1-acetamide, hydrochloride] | 2.6 ± 11.6 | 26.5 ± 11.4 | 2.6 ± 11.6 | 26.5 ± 11.4 | 28.5 ± 13.5 | 21.1 ± 10.9

From patent US20070082930A1, “Pharmaceutical composition comprising a p2x7 receptor antagonist and a nonsteroidal anti-inflammatory drug” (ASTRAZENECA AB, priority 2003, published 2007)
